{"source": "ChEMBL document CHEMBL5620365", "about": "“Synthesis and evaluation of piperazinotriazoles. Discovery of a potent and orally bioavailable neurokinin-3 receptor inhibitor” (Eur J Med Chem, 2023)", "key": {"[1]": {"experiment": "in vivo", "details": "Sprague-Dawley, rat, iv, 1 mg/kg"}, "[2]": {"experiment": "in vitro", "details": "rat, liver microsomes"}, "[3]": {"experiment": "in vivo", "details": "Sprague-Dawley, rat, po, 5 mg/kg"}, "[4]": {"experiment": "in vivo", "details": "Sprague-Dawley, rat, iv, 1 mg/kg", "remark": "listed apart in the source"}, "[5]": {"experiment": "in vivo", "details": "Sprague-Dawley, rat, brain, po, 5 mg/kg"}, "[6]": {"experiment": "in vivo", "details": "Sprague-Dawley, rat, po, 5 mg/kg", "remark": "listed apart in the source"}, "[7]": {"experiment": "in vitro", "details": "human, liver microsomes"}, "[8]": {"experiment": "in vivo", "details": "Sprague-Dawley, rat, iv, 1 mg/kg", "remark": "listed apart in the source"}, "[9]": {"experiment": "in vivo", "details": "Sprague-Dawley, rat, po, 5 mg/kg", "remark": "listed apart in the source"}, "[10]": {"experiment": "in vivo", "details": "Sprague-Dawley, rat, brain, po, 5 mg/kg", "remark": "listed apart in the source"}, "[11]": {"experiment": "in vivo", "details": "Sprague-Dawley, rat, iv, 1 mg/kg", "remark": "listed apart in the source"}, "[12]": {"experiment": "in vivo", "details": "Sprague-Dawley, rat, po, 5 mg/kg", "remark": "listed apart in the source"}, "[13]": {"experiment": "in vivo", "details": "Sprague-Dawley, rat, iv, 1 mg/kg", "remark": "listed apart in the source"}, "[14]": {"experiment": "in vivo", "details": "Sprague-Dawley, rat, liver, po, 5 mg/kg"}}, "data": [{"smiles": "Cc1nsc(-c2nnc3n2CCN(C(=O)c2ccc(F)cc2)[C@@H]3C)n1", "note": "[FEZOLINETANT]", "values": [{"measurement": "AUC(0-t) at 24 h", "setting": "[1]", "value": 5590, "unit": "ng·h/mL"}, {"measurement": "CLint scaled at 0.25 h", "setting": "[2]", "value": "< 6.8", "unit": "mL/min/kg"}, {"measurement": "Cmax at 24 h", "setting": "[3]", "value": 3630, "unit": "ng/mL"}, {"measurement": "clearance at 24 h", "setting": "[4]", "value": 2.93, "unit": "mL/min/kg"}, {"measurement": "concentration at 10 h", "setting": "[5]", "value": 297, "unit": "ng/g"}, {"measurement": "half-life at 24 h", "setting": "[6]", "value": 3.72, "unit": "h"}, {"measurement": "CLint scaled at 0.25 h", "setting": "[7]", "value": "< 13.5", "unit": "mL/min/kg"}, {"measurement": "half-life at 24 h", "setting": "[8]", "value": 2.94, "unit": "h"}, {"measurement": "AUC(0-t) at 24 h", "setting": "[9]", "value": 31600, "unit": "ng·h/mL"}, {"measurement": "concentration at 1 h", "setting": "[10]", "value": 1020, "unit": "ng/g"}, {"measurement": "Cmax at 24 h", "setting": "[11]", "value": 1770, "unit": "ng/mL"}, {"measurement": "Tmax at 24 h", "setting": "[12]", "value": 1.83, "unit": "h"}, {"measurement": "Vd at 24 h", "setting": "[13]", "value": 0.751, "unit": "L/kg"}, {"measurement": "concentration at 1 h", "setting": "[14]", "value": 12100, "unit": "ng/g"}]}]}
